Consider 27 compounds from US20240423207A1, “PICOLINAMIDE COMPOUNDS WITH FUNGICIDAL ACTIVITY” (CORTEVA AGRISCIENCE LLC, priority 2014, published 2024).

Assay [1] has as its system Mycosphaerella graminicola; Anamorph: Septoria tritici. The experiment in a line: Leaf Blotch of Wheat (SEPTTR) fungicidal activity on wheat seedlings. Format: in vivo. To be noted: Zymoseptoria tritici; for pest or weed control at 121.5 g/ha: Low Volume, 121.5 g/H; for pest or weed control at 100 ppm: High Volume. As for the experimental part: Example A: Evaluation of Fungicidal Activity: Leaf Blotch of Wheat (Mycosphaerella graminicola; Anamorph: Septoria tritici; Bayer code […]): Technical grades of materials were dissolved in acetone, which were then mixed with nine volumes of water (H2O) containing 110 ppm Triton X-100. The fungicide solutions were applied onto wheat seedlings using an automated booth sprayer to run-off. All sprayed plants were allowed to air dry prior to further handling. All fungicides were evaluated using the aforementioned method for their activity vs. all target diseases, unless stated otherwise. Wheat leaf blotch and brown rust activity were also evaluated using track spray applications, in which case the fungicides were formulated as EC formulations, containing 0.1% Trycol 5941 in the spray solutions. Wheat plants (variety Yuma) were grown from seed in a greenhouse in 50% mineral soil/50% soil-less Metro mix until the first leaf was fully emerged, with 7-10 seedlings per pot. These plants were inoculated with an aqueous spore suspension of Septoria tritici either prior to or after fungicide treatments. After inoculation the plants were kept in 100% relative humidity (one day in a dark dew chamber followed by two to three days in a lighted dew chamber at 20° C.) to permit spores to germinate and infect the leaf. The plants were then transferred to a greenhouse set at 20° C. for disease to develop. When disease symptoms were fully expressed on the 1st leaves of untreated plants, infection levels were assessed on a scale of 0 to 100 percent disease severity. Percent disease control was calculated using the ratio of disease severity on treated plants relative to untreated plants.

Assay [2] deals with Puccinia triticina; Synonym: Puccinia recondita f sp. tritici. Briefly: Wheat Brown Rust (PUCCRT) fungicidal activity on wheat seedlings. Format: in vivo. The conditions noted are these: for pest or weed control at 121.5 g/ha: Low Volume, 121.5 g/H; for pest or weed control at 100 ppm: High Volume. As for the experimental part:
Technical grades of materials were dissolved in acetone, which were then mixed with nine volumes of water (H2O) containing 110 ppm Triton X-100. The fungicide solutions were applied onto wheat seedlings using an automated booth sprayer to run-off. All sprayed plants were allowed to air dry prior to further handling. All fungicides were evaluated using the aforementioned method for their activity vs. all target diseases, unless stated otherwise. Wheat leaf blotch and brown rust activity were also evaluated using track spray applications, in which case the fungicides were formulated as EC formulations, containing 0.1% Trycol 5941 in the spray solutions. Wheat plants (variety Yuma) were grown from seed in a greenhouse in 50% mineral soil/50% soil-less Metro mix until the first leaf was fully emerged, with 7-10 seedlings per pot. These plants were inoculated with an aqueous spore suspension of Septoria tritici either prior to or after fungicide treatments. After inoculation the plants were kept in 100% relative humidity (one day in a dark dew chamber followed by two to three days in a lighted dew chamber at 20° C.) to permit spores to germinate and infect the leaf. The plants were then transferred to a greenhouse set at 20° C. for disease to develop. When disease symptoms were fully expressed on the 1st leaves of untreated plants, infection levels were assessed on a scale of 0 to 100 percent disease severity. Percent disease control was calculated using the ratio of disease severity on treated plants relative to untreated plants. Example B: Evaluation of Fungicidal Activity: Wheat Brown Rust (Puccinia triticina; Synonym: Puccinia recondita f sp. tritici; Bayer code PUCCRT): Wheat plants (variety Yuma) were grown from seed in a greenhouse in 50% mineral soil/50% soil-less Metro mix until the first leaf was fully emerged, with 7-10 seedlings per pot. These plants were inoculated with an aqueous spore suspension of Puccinia triticina either prior to or after fungicide treatments. After inoculation the plants were kept in a dark dew room at 22° C. with 100% relative humidity overnight to permit spores to germinate and infect the leaf. The plants were then transferred to a greenhouse set at 24° C. for disease to develop. Fungicide formulation, application and disease assessment followed the procedures as described in the Example A.

Where [3] appears, read: 24 h, 1 Day Protectant, read-out: SEPTTR 1DP disease control.
[4] abbreviates: 72 h, 3 Day Curative, read-out: SEPTTR 3DC disease control.
The mark [5] stands for this setting: 24 h, 1 Day Protectant, read-out: PUCCRT 1DP disease control.
The mark [6] stands for this setting: 72 h, 3 Day Curative, read-out: PUCCRT 3DC disease control.

Where two headings read alike, the source gives them in different places.

On to `COc1ccnc(C(=O)N[C@@H](C)C(=O)O[C@@H](C)C(c2ccc(Br)cc2)c2ccc(Br)cc2)c1OC(C)=O` [Cmpd 165], for which the pest or weed control at 121.5 g/ha was greater than 80% in assay [1] (setting [3]), greater than 80% in assay [1] (setting [4]), greater than 80% in assay [2] (setting [5]) and less than 80% in assay [2] (setting [6]).

Turning to `COc1ccnc(C(=O)N[C@H](C(=O)O[C@@H](C)C(c2ccc(F)cc2)c2ccc(F)cc2)C(C)C)c1O` [Cmpd 115], the pest or weed control at 100 ppm in assay [1] (setting [3]) is greater than 80%; in assay [1] (setting [4]), greater than 80%; in assay [2] (setting [5]) it was less than 80%.

With `COc1ccnc(C(=O)N[C@H](C(=O)O[C@@H](C)C(c2ccc(F)cc2)c2ccc(F)cc2)C(C)C)c1OC(C)=O` [Cmpd 189], the pest or weed control at 121.5 g/ha in assay [1] (setting [3]) was greater than 80%; in assay [1] (setting [4]) it was greater than 80%; in assay [2] (setting [5]) it was greater than 80%; in assay [2] (setting [6]) it was less than 80%.

Regarding `COc1ccccc1C(c1ccccc1OC)[C@H](C)OC(=O)[C@H](C)NC(=O)c1nccc(OC)c1O` [Cmpd 117], the pest or weed control at 100 ppm in assay [1] (setting [3]) was greater than 80%; in assay [1] (setting [4]), greater than 80%; in assay [2] (setting [5]) it was greater than 80%; in assay [2] (setting [6]), less than 80%.

As to `COc1ccnc(C(=O)N[C@@H](C)C(=O)O[C@@H](C)C(O)(c2ccc(Cl)cc2F)c2ccc(Cl)cc2F)c1OCOC(C)=O` [Cmpd 193], the pest or weed control at 121.5 g/ha in assay [1] (setting [3]) is greater than 80%; in assay [1] (setting [4]), greater than 80%; in assay [2] (setting [5]) it was less than 80%.

Consider `COc1ccnc(C(=O)N[C@@H](C)C(=O)O[C@@H](C)C(c2cccc(F)c2)c2cccc(F)c2)c1O` [Cmpd 99], for which the pest or weed control at 100 ppm is greater than 80% in assay [1] (setting [3]), greater than 80% in assay [1] (setting [4]), greater than 80% in assay [2] (setting [5]) and less than 80% in assay [2] (setting [6]).

With `COc1ccnc(C(=O)N[C@@H](CC(C)C)C(=O)O[C@@H](C)C(c2ccc(F)cc2)c2ccc(F)cc2)c1OCOC(C)=O` [Cmpd 186], the pest or weed control at 121.5 g/ha in assay [1] (setting [3]) is greater than 80%; in assay [1] (setting [4]), less than 80%; in assay [2] (setting [5]), less than 80%.

Turning to `CCOC(c1ccccc1)(c1ccccc1)[C@H](C)OC(=O)[C@H](C)NC(=O)c1nccc(OC)c1O` [Cmpd 93], the pest or weed control at 100 ppm in assay [1] (setting [3]) is greater than 80%; in assay [1] (setting [4]), less than 80%; in assay [2] (setting [5]), less than 80%.

Consider `COc1ccnc(C(=O)N[C@@H](C)C(=O)O[C@@H](C)C(F)(c2ccccc2)c2ccccc2)c1OC(C)=O` [Cmpd 152], for which the pest or weed control at 121.5 g/ha is greater than 80% in assay [1] (setting [3]), greater than 80% in assay [1] (setting [4]), less than 80% in assay [2] (setting [5]) and less than 80% in assay [2] (setting [6]).

For `COc1ccnc(C(=O)N[C@@H](C)C(=O)O[C@@H](C)C(O)(c2ccc(Cl)c(F)c2)c2ccc(Cl)c(F)c2)c1OCOC(C)=O` [Cmpd 202], the pest or weed control at 121.5 g/ha in assay [1] (setting [3]) and in assay [1] (setting [4]) was greater than 80% each time.

For `COc1ccnc(C(=O)N[C@@H](C)C(=O)O[C@@H](C)[C@@H](c2ccccc2)c2ccc(C(F)(F)F)cc2)c1OC(C)=O` [Cmpd 173], the pest or weed control at 121.5 g/ha in assay [1] (setting [3]) was greater than 80%; in assay [1] (setting [4]) it was greater than 80%; in assay [2] (setting [5]) it was greater than 80%; in assay [2] (setting [6]), less than 80%.

With `COc1ccnc(C(=O)N[C@@H](C)C(=O)O[C@@H](C)C(O)(c2ccccc2)c2ccccc2)c1OCOC(C)=O` [Cmpd 138], the pest or weed control at 121.5 g/ha was greater than 80% in assay [1] (setting [3]), less than 80% in assay [1] (setting [4]) and less than 80% in assay [2] (setting [6]).

As to `COc1ccnc(C(=O)N[C@@H](C)C(=O)O[C@@H](C)[C@@H](c2ccccc2)c2ccc(F)cc2)c1O` [Cmpd 125], the pest or weed control at 100 ppm in assay [1] (setting [3]), in assay [1] (setting [4]), in assay [2] (setting [5]) and in assay [2] (setting [6]) was greater than 80% in each case.

Take `COc1ccnc(C(=O)N[C@@H](C)C(=O)O[C@@H](C)C(c2cccc(F)c2)c2cccc(F)c2)c1OCOC(C)=O` [Cmpd 159]: the pest or weed control at 121.5 g/ha in assay [1] (setting [3]), in assay [1] (setting [4]), in assay [2] (setting [5]) and in assay [2] (setting [6]) was greater than 80% each time.

For the compound `COc1ccnc(C(=O)N[C@@H](C)C(=O)O[C@@H](C)C(c2ccc(Cl)c(C)c2)c2ccc(Cl)c(C)c2)c1OCOC(C)=O` [Cmpd 203], the pest or weed control at 121.5 g/ha is greater than 80% in assay [1] (setting [3]), greater than 80% in assay [1] (setting [4]), greater than 80% in assay [2] (setting [5]) and less than 80% in assay [2] (setting [6]).

`COc1ccnc(C(=O)N[C@@H](C)C(=O)O[C@@H](C)C(O)(c2ccc(Cl)c(Cl)c2)c2ccc(Cl)c(Cl)c2)c1OCOC(C)=O` [Cmpd 201]: the pest or weed control at 121.5 g/ha in assay [1] (setting [3]) is greater than 80%; in assay [1] (setting [4]) it was greater than 80%; in assay [2] (setting [5]) it was less than 80%.

On to `CCOc1ccnc(C(=O)N[C@@H](C)C(=O)O[C@@H](C)C(c2ccc(F)cc2)c2ccc(F)cc2)c1OCOC(C)=O` [Cmpd 179], for which the pest or weed control at 121.5 g/ha in assay [1] (setting [3]) was greater than 80%; in assay [1] (setting [4]) it was greater than 80%; in assay [2] (setting [5]), less than 80%.

With `COc1ccnc(C(=O)N[C@@H](C)C(=O)OC(C)C2c3ccccc3Oc3ccccc32)c1OC(C)=O` (stereo partly drawn) [Cmpd 162], the pest or weed control at 121.5 g/ha in assay [1] (setting [4]) was less than 80%.

With `COc1ccnc(C(=O)N[C@@H](C)C(=O)OC(C)C2c3ccccc3Oc3ccccc32)c1OCOC(C)=O` (stereo partly drawn) [Cmpd 164], the pest or weed control at 121.5 g/ha in assay [1] (setting [3]) was less than 80%.

Consider `COc1ccnc(C(=O)N[C@@H](C)C(=O)OC(C)C2c3ccccc3-c3ccccc32)c1OC(C)=O` (stereo partly drawn) [Cmpd 161], for which the pest or weed control at 121.5 g/ha in assay [1] (setting [3]) was less than 80%; in assay [1] (setting [4]), greater than 80%.

For the compound `COc1ccnc(C(=O)N[C@@H](C)C(=O)OC(C)C2c3ccccc3-c3ccccc32)c1O` (stereo partly drawn) [Cmpd 101], the pest or weed control at 100 ppm in assay [1] (setting [3]) was less than 80%.

Turning to `CC(=O)OCOc1ccccc1C(=O)N[C@@H](C)C(=O)O[C@@H](C)C(c1ccc(F)cc1)c1ccc(F)cc1` [Cmpd 180], the pest or weed control at 121.5 g/ha in assay [1] (setting [3]) is less than 80%.

Take `C[C@H](NC(=O)c1ccccc1O)C(=O)O[C@@H](C)C(c1ccc(F)cc1)c1ccc(F)cc1` [Cmpd 112]: the pest or weed control at 100 ppm in assay [1] (setting [3]) and in assay [1] (setting [4]) was less than 80% each time.

`COc1ccnc(C(=O)N[C@@H](C)C(=O)O[C@@H](C)C(c2ccc(-c3ccccc3)cc2)c2ccc(-c3ccccc3)cc2)c1OCOC(C)=O` [Cmpd 181]: the pest or weed control at 121.5 g/ha in assay [1] (setting [3]) and in assay [1] (setting [4]) was less than 80% in each case.

Take `COc1ccnc(C(=O)N[C@@H](C)C(=O)O[C@@H](C)C(O)(c2ccccc2F)c2ccccc2F)c1O` [Cmpd 122]: the pest or weed control at 100 ppm in assay [1] (setting [3]) and in assay [1] (setting [4]) was less than 80% each time.

`COc1ccnc(C(=O)N[C@@H](C)C(=O)O[C@@H](C)C(O)(c2ccc(Cl)cc2F)c2ccc(Cl)cc2F)c1O` [Cmpd 119]: the pest or weed control at 100 ppm is greater than 80% in assay [1] (setting [3]) and less than 80% in assay [1] (setting [4]).

Consider `COc1ccnc(C(=O)N[C@@H](C)C(=O)O[C@@H](C)C(O)(c2ccccc2F)c2ccccc2F)c1OCOC(C)=O` [Cmpd 196], for which the pest or weed control at 121.5 g/ha in assay [1] (setting [3]) was greater than 80%; in assay [1] (setting [4]), less than 80%.
